Values quoted from earlier work in US9511078B2, “Self-nanoemulsion of poorly soluble drugs” (Kashiv Pharma, LLC, priority 2013, dated 2016).

Assays:
[1] = high-fat meal (57% fat, 825 calories)

| Log P | Abiraterone AUC0-∞, fold higher with food [1] | Abiraterone Cmax, fold higher with food [1] | SMILES |
| --- | --- | --- | --- |
| 3.5 | – | – | CC(=O)[C@H]1CC[C@H]2[C@@H]3CCC4=CC(=O)CC[C@]4(C)[C@H]3CC[C@]12C [Progesterone, pregn-4-ene-3,20-dione] |
| – | ~10 fold | approximately 17 fold | CC(=O)O[C@H]1CC[C@@]2(C)C(=CC[C@@H]3[C@@H]2CC[C@]2(C)C(c4cccnc4)=CC[C@@H]32)C1 [Abiraterone acetate] |
